Data on four molecules can be found in ChEMBL document CHEMBL1134391, “Design, synthesis, and structural analysis of influenza neuraminidase inhibitors containing pyrrolidine cores” (J Med Chem, 2001).

The test system of assay [1] is influenza virus b. Nature of the assay: Inhibitory activity was determined against Neuraminidase B/Memphis at 0.5 mM concentration.
Assay [2] has as its system influenza virus b. Nature of the assay: Inhibitory activity was determined against Neuraminidase B/Memphis at 1 mM concentration.
Assay [3] concerns the target Neuraminidase (Influenza B virus (strain B/Lee/1940), UniProt P03474). Nature of the assay: Inhibitory activity was determined against Neuraminidase B/Memphis.

The structures appear in SMILES notation.

Chain of Neuraminidase (P03474 whole entry): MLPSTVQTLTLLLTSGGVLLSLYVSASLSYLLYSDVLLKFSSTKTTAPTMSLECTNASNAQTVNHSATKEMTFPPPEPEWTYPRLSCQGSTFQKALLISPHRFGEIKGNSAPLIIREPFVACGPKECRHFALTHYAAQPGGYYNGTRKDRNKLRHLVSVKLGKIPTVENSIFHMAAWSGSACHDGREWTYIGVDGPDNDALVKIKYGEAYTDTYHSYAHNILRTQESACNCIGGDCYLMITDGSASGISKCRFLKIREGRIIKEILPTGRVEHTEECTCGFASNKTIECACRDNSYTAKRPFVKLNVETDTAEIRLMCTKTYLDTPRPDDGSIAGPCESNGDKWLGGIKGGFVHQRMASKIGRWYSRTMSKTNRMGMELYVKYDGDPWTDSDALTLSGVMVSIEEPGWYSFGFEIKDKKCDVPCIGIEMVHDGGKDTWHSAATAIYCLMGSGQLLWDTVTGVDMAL

Usually inhibition stands for the percentage by which the read-out fell short of the control. Low readings indicate a weak effect, high ones a strong effect. In assay [1], `CCN(C(=O)N1C[C@@H](C(=O)O)[C@@H](N)[C@@H]1CNS(C)(=O)=O)C(C)C` showed an inhibition of 38%.

`CCC(=O)NC[C@H]1[C@H](N)[C@H](C(=O)O)CN1C(=O)N(CC)C(C)C` had an inhibition in assay [2] of 26%.

What is called IC50 is the concentration at which inhibition is half-maximal. A low value points to inhibition by little substance. In assay [3], `CCN(C(=O)N1C[C@@H](C(=O)O)[C@@H](N)[C@@H]1CNC(C)=O)C(C)C` returned an IC50 of 340 µM.

`CCN(C(=O)N1C[C@@H](C(=O)O)[C@@H](N)[C@@H]1CNC(=O)C(F)(F)F)C(C)C` [A-192558] gave an IC50 in assay [3] of 8 µM.
